Results from paper PMC11901438, “Synthesis and Evaluation of Boron-Containing Heterocyclic Compounds with Antimicrobial and Anticancer Activities” (Molecules, 2025).
pIC50: −log10 of the molar value. Values after ≈ are worked out from the molar mass of the structure shown.

How the values were obtained:
[1] = tested on: SCC-25 cells; experiment: MTT anticancer assay in SCC-25 cells; format: cell-based; settings: for pIC50: MTT, 24 h; for SI (selectivity index): NOK-si versus SCC-25
Protocol: (§1) Boronic acid and benzoboroxole derivatives have been identified as potential anticancer agents. To investigate their efficacy against head and neck cancer cell lines, SCC-25 cells were utilized in this study, as a model for oral squamous cell carcinoma. Additionally, cytotoxicity was performed in normal oral keratinocytes NOK-si cells to evaluate the selective index of the compounds. […] The selectivity of the compounds is quantified by the selectivity index (SI), with those with an SI greater than 3.0 being considered promising for further evaluation, in accordance with internal protocols.
(§2) The SCC-25 was purchased from Rio de Janeiro Cell Bank, and NOK-si was kindly provided by Prof. Carlos Rossa from the School of Dentistry—UNESP. The cell lines were initially thawed and cultured in 25 cm^2 cell culture flasks. Cell growth was monitored using a microscope, and the culture medium was changed periodically. Upon reaching confluency, cell dissociation was achieved by adding 5 mL of trypsin (Sigma-Aldrich, St Louis, MO, USA) and incubating the bottles in a CO2 incubator for 10 min. Subsequently, the cells were transferred to 15 mL Falcon tubes and centrifuged at 2000 rpm for 10 min. Cell counting was performed using a Countess II FL automated cell counter (ThermoFischer, Waltham, MA, USA). The cells were seeded at a density of 30,000 cells per well in 96-well plates. The plates were then incubated at 37 °C in 5% CO2 for 24 h. Following this, test compounds were incubated for another 24 h at 10 different concentrations: 50, 25, 12.5, 6.25, 3.12, 1.56, 0.78, 0.39, 0.19, and 0.097 µg/mL. After the specified time, MTT reagent (3 mg/mL) (Sigma-Aldrich, St Louis, MO, USA) dissolved in phenol-free RPMI 1640 was added and incubated for 4 h. The formed MTT crystals were solubilized using 2-propanol P.A (Sigma-Aldrich, St Louis, MO, USA) with agitation. Absorbance was read at 562 nm using an EZ Read 400 microplate reader (Biochrom, Cambridge, UK) and ADAP 2.0 Biochrom software (version 2.0). IC50 values and graphs were calculated by Dr. Paula Aboud Barbugli using Excel and Prism software (version 10.4.1). The MTT assay results were evaluated for normality using the Shapiro–Wilk test, followed by one-way ANOVA with Tukey’s post hoc test at a significance level of 5%.

[2] = tested on: M. tuberculosis H37RV ATCC 27294 strain; experiment: Resazurin microtiter assay (REMA), MIC90; format: cell-based; settings: Mycobacterium tuberculosis, cut-off 25 µM
[3] = tested on: T. mentagrophytes (ATCC 11481); experiment: Antifungal susceptibility test (CLSI M38-A2 microdilution, resazurin), MIC90; settings: Trichophyton mentagrophytes, ATCC11481|ATCC28189, read-out: T. mentagrophytes ATCC 28189 MIC90
[4] = tested on: NOK-si cells; experiment: MTT cytotoxicity assay in normal oral keratinocytes NOK-si; format: cell-based; settings: Keratinocyte, 24 h, read-out: NOK-si IC50
Protocol: as §1, §2

[5] = tested on: T. rubrum ATCC 28189; experiment: Antifungal susceptibility test (CLSI M38-A2 microdilution, resazurin), MIC90; settings: Trichophyton rubrum, ATCC28189, read-out: T. rubrum ATCC 28189 MIC90
[6] = tested on: HaCaT cell line; experiment: Resazurin cytotoxicity assay using HaCaT cells; format: cell-based, human; settings: compared to the benzoboroxole derivatives 44 and 45
Protocol: For the cytotoxicity assay, the HaCaT cell line, which is characterized as immortalized normal human keratinocytes, was used.
For the cytotoxicity assay, the HaCat cell line, characterized as immortalized normal human keratinocytes, was used. The cells were maintained in (DMEM) supplemented with 10% of bovine fetal serum (BFS) (Sigma-Aldrich, St Louis, MO, USA) in cell culture bottles with 5% CO2 at 37 °C. After a confluence of 75%, the cells were treated with trypsin + EDTA 0.25%, centrifugated at 1500 rpm for 10 min, and 5 × 10^4 cells/well were seeded in 96-well plates for incubation for 24 h for cell adhesion before treatment. After adhesion, the cells were treated with 100 µL of the compounds 34 and 40, with fungi activity in concentrations between 3.90 and 125 µg/mL. Regarding the controls, DMSO in the concentration range of (1–4%) was used as a positive control for cytotoxicity; the beyond negative control comprised HaCaT cells only in DMEM medium (Sigma-Aldrich, St Louis, MO, USA). After 24 h of treatment, 30 µL of resazurin 50 µM was added to each well for 4 h, and the plates were read at 560 and 600 nm using microplate reader BioTek (Agilent, Santa Clara, CA, USA), Gen 5 software (version 2.09). The […] (IC50) for each compound was determined based on resazurin reduction. Three independent assays were performed.

O=C(Nc1ccc(N2CCN(c3ncccn3)CC2)c(F)c1)c1ccc(B(O)O)cc1 [Compound 36, [4-({3-Fluoro-4-[4-(pyrimidin-2-yl)piperazin-1-yl]phenyl}carbamoyl)phenyl]boronic acid]
pIC50 ([1]; Homo sapiens, SCC-25, 24 h): 3.87 | SI (selectivity index) [1]: 1.00 | MIC90 [2]: > 25 µM | MIC90 [3]: 297 µM (≈ 125 µg/mL) | CC50 [4]: 134 µM | MIC90 [5]: 297 µM (≈ 125 µg/mL)

O=C(Nc1ccc(N2CCN(c3ncccn3)CC2)c(F)c1)c1cccc(B(O)O)c1 [Compound 30, [3-({3-Fluoro-4-[4-(pyrimidin-2-yl)piperazin-1-yl]phenyl}carbamoyl)phenyl]boronic acid]
SI (selectivity index) [1]: <1 | MIC90 [2]: > 25 µM | MIC90 [3]: 297 µM (≈ 125 µg/mL) | MIC90 [5]: 297 µM (≈ 125 µg/mL)

CN(C/C=C/C#CC(C)(C)C)Cc1cccc2ccccc12 [Terbinafine, reference compound]
MIC90 [3]: 2.5e-05 µM (≈ 7.29e-06 µg/mL) | MIC90 [5]: 0.0001 µM (≈ 2.91e-05 µg/mL)

O=C(Nc1ccc(N2CCSCC2)c(F)c1)c1ccc2c(c1)COB2O [Compound 45, N-(3-fluoro-4-thiomorpholinophenyl)-1-hydroxy-1,3-dihydrobenzo[c][1,2]oxaborole-5-carboxamide]
pIC50 ([1]; Homo sapiens, SCC-25, 24 h): 4.08 | SI (selectivity index) [1]: <1 | MIC90 [2]: > 25 µM | MIC90 [3]: 336 µM (≈ 125 µg/mL) | CC50 [4]: 65.8 µM | MIC90 [5]: 336 µM (≈ 125 µg/mL)

O=C(Nc1ccc(N2CCSCC2)c(F)c1)c1ccc(B(O)O)cc1 [Compound 38, {4-[(3-Fluoro-4-thiomorpholinophenyl)carbamoyl]phenyl}boronic acid]
SI (selectivity index) [1]: <1 | MIC90 [2]: > 25 µM | MIC90 [3]: 347 µM (≈ 125 µg/mL) | CC50 [4]: 149 µM | MIC90 [5]: 347 µM (≈ 125 µg/mL)

O=c1[nH]cc(F)c(=O)[nH]1 [5-fluorouracil, reference compound]
pIC50 ([1]; Homo sapiens, SCC-25, 24 h): 2.74

O=C(Nc1ccc(N2CCCCCC2)c(F)c1)c1ccc(B(O)O)cc1 [Compound 40, (4-{[4-(Azepan-1-yl)-3-fluorophenyl]carbamoyl}phenyl)boronic acid]
pIC50 ([1]; Homo sapiens, SCC-25, 24 h): 4.07 | SI (selectivity index) [1]: 1.49 | MIC90 [2]: > 25 µM | MIC90 [3]: 42 µM (≈ 15 µg/mL) | cytotoxic effects in HaCaT cells (comparison in words) [6]: higher cytotoxic effects | CC50 [4]: 127 µM | MIC90 [5]: 88 µM (≈ 31.3 µg/mL)

O=C(Nc1ccc(N2CCN(c3ccccn3)CC2)c(F)c1)c1ccc2c(c1)COB2O [Compound 44, N-{3-fluoro-4-[4-(pyridin-2-yl)piperazin-1-yl]phenyl}-1-hydroxy-1,3-dihydrobenzo[c][1,2]oxaborole-5-carboxamide]
killing effect in SCC-25 cells [1]: absent killing effect | SI (selectivity index) [1]: <1 | MIC90 [2]: > 25 µM | MIC90 [3]: 146 µM (≈ 63.1 µg/mL) | MIC90 [5]: 289 µM (≈ 125 µg/mL)

O=C(Nc1ccc(N2CCN(c3ccccn3)CC2)c(F)c1)c1ccc(B(O)O)cc1 [Compound 35, [4-({3-Fluoro-4-[4-(pyridin-2-yl)piperazin-1-yl]phenyl}carbamoyl)phenyl]boronic acid]
pIC50 ([1]; Homo sapiens, SCC-25, 24 h): 4.35 | pIC50 [1]: 4.34 | SI (selectivity index) [1]: 3.37 | MIC90 [2]: > 25 µM | MIC90 [3]: 297 µM (≈ 125 µg/mL) | CC50 [4]: 221 µM | MIC90 [5]: 297 µM (≈ 125 µg/mL)

O=C(Nc1ccc(N2CCCCCC2)c(F)c1)c1cccc(B(O)O)c1 [Compound 34, (3-{[4-(Azepan-1-yl)-3-fluorophenyl]carbamoyl}phenyl)boronic acid]
pIC50 ([1]; Homo sapiens, SCC-25, 24 h): 4.17 | SI (selectivity index) [1]: 1.91 | MIC90 [2]: > 25 µM | MIC90 [3]: 21 µM (≈ 7.48 µg/mL) | cytotoxic effects in HaCaT cells (comparison in words) [6]: higher cytotoxic effects | CC50 [4]: 129 µM | MIC90 [5]: 42 µM (≈ 15 µg/mL)

O=C(Nc1ccc(N2CCSCC2)c(F)c1)c1cccc(B(O)O)c1 [Compound 32, {3-[(3-Fluoro-4-thiomorpholinophenyl)carbamoyl]phenyl}boronic acid]
SI (selectivity index) [1]: <1 | MIC90 [2]: > 25 µM | MIC90 [3]: 347 µM (≈ 125 µg/mL) | MIC90 [5]: 347 µM (≈ 125 µg/mL)

O=C(Nc1ccc(N2CCN(c3ccc(F)cc3)CC2)c(F)c1)c1cccc(B(O)O)c1 [Compound 31, [3-({3-Fluoro-4-[4-(4-fluorophenyl)piperazin-1-yl]phenyl}carbamoyl)phenyl]boronic acid]
pIC50 ([1]; Homo sapiens, SCC-25, 24 h): 4.23 | SI (selectivity index) [1]: 3.73 | MIC90 [2]: > 25 µM | MIC90 [3]: 286 µM (≈ 125 µg/mL) | CC50 [4]: > 221 µM | MIC90 [5]: 286 µM (≈ 125 µg/mL)

O=C(Nc1ccc(N2CCOCC2)c(F)c1)c1ccc(B(O)O)cc1 [Compound 39, {4-[(3-Fluoro-4-morpholinophenyl)carbamoyl]phenyl}boronic acid]
pIC50 ([1]; Homo sapiens, SCC-25, 24 h): 4.13 | SI (selectivity index) [1]: 1.04 | MIC90 [2]: > 25 µM | MIC90 [3]: 363 µM (≈ 125 µg/mL) | CC50 [4]: 77.1 µM | MIC90 [5]: 363 µM (≈ 125 µg/mL)

O=C(Nc1ccc(N2CCOCC2)c(F)c1)c1cccc(B(O)O)c1 [Compound 33, {3-[(3-Fluoro-4-morpholinophenyl)carbamoyl]phenyl}boronic acid]
SI (selectivity index) [1]: <1 | MIC90 [2]: > 25 µM | MIC90 [3]: 363 µM (≈ 125 µg/mL) | MIC90 [5]: 363 µM (≈ 125 µg/mL)

O=C(Nc1ccc(N2CCN(c3ccccn3)CC2)c(F)c1)c1cccc(B(O)O)c1 [Compound 29, {3-({3-Fluoro-4-[4-(pyridin-2-yl)piperazin-1-yl]phenyl}carbamoyl)phenyl}boronic acid]
pIC50 ([1]; Homo sapiens, SCC-25, 24 h): 4.10 | pIC50 [1]: 3.93 | SI (selectivity index) [1]: <1 | MIC90 [2]: > 25 µM | MIC90 [3]: 297 µM (≈ 125 µg/mL) | CC50 [4]: 110 µM | MIC90 [5]: 297 µM (≈ 125 µg/mL)

O=C(Nc1ccc(N2CCN(c3ccc(F)cc3)CC2)c(F)c1)c1ccc(B(O)O)cc1 [Compound 37, [4-({3-Fluoro-4-[4-(4-fluorophenyl)piperazin-1-yl]phenyl}carbamoyl)phenyl]boronic acid]
pIC50 ([1]; Homo sapiens, SCC-25, 24 h): 4.10 | SI (selectivity index) [1]: 1.55 | MIC90 [2]: > 25 µM | MIC90 [3]: 286 µM (≈ 125 µg/mL) | CC50 [4]: 123 µM | MIC90 [5]: 286 µM (≈ 125 µg/mL)

NNC(=O)c1ccncc1 [Isoniazide, reference compound]
MIC90 [2]: 0.11 µM (≈ 0.0151 µg/mL)
